Source: patent US8959984B2, “Proteome-wide quantification of small molecule binding to cellular target proteins” (priority 2007, dated 2015)
Read-outs that look alike come from different tables or passages of the source.

Columns and labels:
[1] = target: SNRPG (Homo sapiens, UniProt P62308); assay: binding to AX14596 beads (HeLa lysate, SILAC MS); design: endogenous in cells; host or cells: HeLa S3
Method: (§1) Differentially SILAC-encoded cell lysates were either incubated with the inhibitor beads displaying immobilized AX14596 or control resin devoid of ligand. In parallel, the supernatant from the first binding step was subjected to a second incubation with the AX14596 resin (FIG. 4). The resulting three elution fractions were combined, resolved by gel electrophoresis, proteolytically digested and the relative abundance of the retained proteins quantified. Proteins showing considerable binding to the control resin were identified as non-specific interactors and therefore not considered further. […] These target-specific ratios were similar in “label switch” experiments (FIGS. 6a and 6c). The binding equilibrium was determined in parallel control SILAC experiments as well as the excess of the immobilized compound over its cellular targets, the excess preferably being a molar excess (FIG. 7 and FIG. 8).
(§2) Cysteine carbamidomethylation was set as a fixed modification and N-acetyl protein and oxidized methionine were allowed as variable modifications. Spectra that were determined to result from heavy labeled peptides in the pre-search detection of SILAC partners by MaxQuant were searched with the fixed modifications Lys^4, Lys^8, Arg^6 and Arg^10, whereas MS/MS spectra for which no SILAC state could be assigned before database searching were searched with Lys^4, Lys^8, Arg^6 and Arg^10 as variable modifications. The mass tolerance was set to 5 ppm for monoisotopic precursor ions and to 0.5 Da for MS/MS peaks. The minimum peptide length was set to 6 amino acids and up to three missed cleavages and three isotopically labeled amino acids were permitted per peptide. The accepted false discovery rate (FDR) was 1% for the proteins and peptides. The cut-off for the posterior error probability (PEP) of peptides was set to 10%. Peptide PEPs were determined by generating Mascot score and peptide-length-dependent histograms for both the forward and the reverse hits and then deriving the probability of a false identification for a given top-scoring peptide using Bayes' theorem. The PEPs of peptides belonging to the same proteins were then multiplied. Each peptide sequence was considered only once with the lowest PEP determined in case of multiple sequencing of the same isotopic pattern or of peptide species with different SILAC, charge or modification states. Proteins were then sorted according to their products of their peptide PEPs and included until a FDR of 1% was reached according to the fraction of reverse proteins contained in the protein list. In addition to the FDR threshold applied for protein identification, proteins were only included when they were identified with at least two peptides (of which one was required to be unique for the protein) and quantified if at least on quantifiable SILAC pair was associated with them. Outliers were not removed as protein ratios were calculated as the median instead of the average of all peptide ratios. For peptides shared among different identified proteins, SILAC ratios were only considered for the ratio of the protein identified with the highest number of unique peptides. Protein ratios for the different in vitro association experiments were corrected for the initial SILAC pooling ratio, which was determined from the median of protein ratios in pooled SILAC-encoded cell extracts.

[2] = target: RPL7A (Homo sapiens, UniProt P62424); assay: binding to AX14596 beads (HeLa lysate, SILAC MS); design: endogenous in cells; host or cells: HeLa S3
Method: as §1, §2

[3] = target: RPL7 (Homo sapiens, UniProt P18124); assay: binding to AX14596 beads (HeLa lysate, SILAC MS); design: endogenous in cells; host or cells: HeLa S3
Method: as §1, §2

[4] = target: RPL27A (Homo sapiens, UniProt P46776); assay: binding to AX14596 beads (HeLa lysate, SILAC MS); design: endogenous in cells; host or cells: HeLa S3
Method: as §1, §2

[5] = target: CaMK2d (CAMK2D) (Homo sapiens, UniProt Q13557); assay: binding to AX14596 beads (HeLa lysate, SILAC MS); design: endogenous in cells; host or cells: HeLa S3
Method: as §1, §2

[6] = target: YES (Homo sapiens, UniProt P07947); assay: binding to immobilized V16742 (IVA1/IVA2, HeLa lysate, MS)
[7] = target: T1, BLMH (Homo sapiens, UniProt Q13867); assay: gefitinib competition against AX14596 beads (HeLa lysate, SILAC MS); assay type: binding
T1 construct: endogenous in cells; host or cells: HeLa S3
T1 sequence (Q13867 1-455): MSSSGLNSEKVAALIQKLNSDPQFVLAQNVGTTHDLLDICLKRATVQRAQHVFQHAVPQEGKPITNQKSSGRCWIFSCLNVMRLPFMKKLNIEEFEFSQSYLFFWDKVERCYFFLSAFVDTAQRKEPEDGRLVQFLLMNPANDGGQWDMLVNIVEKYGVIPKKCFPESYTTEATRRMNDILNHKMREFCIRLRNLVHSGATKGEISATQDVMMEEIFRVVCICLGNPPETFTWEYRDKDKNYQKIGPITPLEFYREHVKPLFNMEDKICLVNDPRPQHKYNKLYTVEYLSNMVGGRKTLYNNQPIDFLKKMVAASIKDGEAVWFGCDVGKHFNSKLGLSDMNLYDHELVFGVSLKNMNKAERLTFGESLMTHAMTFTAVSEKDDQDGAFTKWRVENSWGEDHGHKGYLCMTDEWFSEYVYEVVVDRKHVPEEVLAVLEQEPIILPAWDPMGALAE

[8] = target: SPR (Homo sapiens, UniProt P35270)
[9] = target: MNK1 (MKNK1) (Homo sapiens, UniProt Q9BUB5)
Sequence of MNK1 (MKNK1) (Q9BUB5 whole entry): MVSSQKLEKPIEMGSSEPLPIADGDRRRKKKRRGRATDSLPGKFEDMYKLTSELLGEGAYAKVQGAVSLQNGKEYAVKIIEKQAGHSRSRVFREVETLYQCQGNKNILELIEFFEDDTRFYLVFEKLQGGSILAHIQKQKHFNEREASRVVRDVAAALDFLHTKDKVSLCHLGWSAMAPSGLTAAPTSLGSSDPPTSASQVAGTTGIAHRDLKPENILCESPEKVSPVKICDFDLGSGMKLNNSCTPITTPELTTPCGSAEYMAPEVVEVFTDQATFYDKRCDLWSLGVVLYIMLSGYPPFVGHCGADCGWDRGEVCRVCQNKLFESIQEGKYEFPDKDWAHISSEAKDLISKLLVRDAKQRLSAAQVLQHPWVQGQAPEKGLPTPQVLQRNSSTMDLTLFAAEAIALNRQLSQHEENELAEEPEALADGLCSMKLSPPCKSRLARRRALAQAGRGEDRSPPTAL

Sequence of YES (P07947 whole entry): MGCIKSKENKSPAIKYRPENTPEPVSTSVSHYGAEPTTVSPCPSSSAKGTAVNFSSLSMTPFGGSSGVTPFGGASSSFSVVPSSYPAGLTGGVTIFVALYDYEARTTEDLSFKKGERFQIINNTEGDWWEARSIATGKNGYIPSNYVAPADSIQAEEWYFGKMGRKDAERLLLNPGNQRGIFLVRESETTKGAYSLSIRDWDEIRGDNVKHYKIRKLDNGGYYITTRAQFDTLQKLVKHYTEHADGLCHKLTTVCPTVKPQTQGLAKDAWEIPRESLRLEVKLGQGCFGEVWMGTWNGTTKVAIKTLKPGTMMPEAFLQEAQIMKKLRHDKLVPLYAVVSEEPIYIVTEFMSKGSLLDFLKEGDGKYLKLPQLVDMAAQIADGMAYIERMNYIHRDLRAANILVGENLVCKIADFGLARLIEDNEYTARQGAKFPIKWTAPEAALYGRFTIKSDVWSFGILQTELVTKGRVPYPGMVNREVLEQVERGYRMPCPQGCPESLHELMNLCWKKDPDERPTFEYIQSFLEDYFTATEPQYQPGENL
Sequence of SNRPG (P62306 whole entry): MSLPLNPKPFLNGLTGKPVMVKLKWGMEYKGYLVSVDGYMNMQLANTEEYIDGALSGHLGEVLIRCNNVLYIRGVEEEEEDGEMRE
Sequence of SNRPG (P62304 whole entry, further chain): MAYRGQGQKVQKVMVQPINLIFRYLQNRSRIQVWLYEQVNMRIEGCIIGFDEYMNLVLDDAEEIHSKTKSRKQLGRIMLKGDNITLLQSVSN
Sequence of SNRPG (P62308 whole entry): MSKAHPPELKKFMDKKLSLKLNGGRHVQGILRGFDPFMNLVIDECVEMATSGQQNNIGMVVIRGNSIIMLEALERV
Sequence of CaMK2d (CAMK2D) (Q13557 whole entry): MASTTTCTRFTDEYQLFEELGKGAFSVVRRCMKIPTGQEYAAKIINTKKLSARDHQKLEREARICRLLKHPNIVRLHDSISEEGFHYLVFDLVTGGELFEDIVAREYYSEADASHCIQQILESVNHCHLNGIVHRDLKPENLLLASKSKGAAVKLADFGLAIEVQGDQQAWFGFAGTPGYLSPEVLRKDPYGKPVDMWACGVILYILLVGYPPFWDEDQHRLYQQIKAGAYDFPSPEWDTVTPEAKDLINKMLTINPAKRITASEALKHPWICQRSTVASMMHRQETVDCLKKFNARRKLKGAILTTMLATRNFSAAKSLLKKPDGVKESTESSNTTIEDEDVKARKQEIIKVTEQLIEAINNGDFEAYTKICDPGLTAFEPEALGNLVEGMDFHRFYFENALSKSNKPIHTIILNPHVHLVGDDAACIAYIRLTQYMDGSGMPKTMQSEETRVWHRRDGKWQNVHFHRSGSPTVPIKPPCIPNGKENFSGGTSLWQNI
Sequence of SPR (P35270 whole entry): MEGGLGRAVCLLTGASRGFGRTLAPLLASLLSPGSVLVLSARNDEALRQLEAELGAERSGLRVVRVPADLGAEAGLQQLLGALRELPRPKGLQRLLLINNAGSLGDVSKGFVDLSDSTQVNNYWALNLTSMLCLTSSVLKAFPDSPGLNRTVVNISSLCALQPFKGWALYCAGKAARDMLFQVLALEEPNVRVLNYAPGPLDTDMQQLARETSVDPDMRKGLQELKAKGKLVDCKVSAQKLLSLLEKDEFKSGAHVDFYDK

COc1cc2ncnc(Nc3ccc(F)c(Cl)c3)c2cc1OCCCN [AX14596]
Ki [1]: 87.6 µM
r (3 mg/1 mg lysate) [1]: 2.54
rAVERAGE (2. inc/1. inc) [1]: 0.47
rAVERAGE (control/1. inc) [1]: 0.16
Ki [2]: 2100 µM
r (3 mg/1 mg lysate) [2]: 5.23
rAVERAGE (2. inc/1. inc) [2]: 0.95
rAVERAGE (control/1. inc) [2]: 0.17
Ki [3]: 2310 µM
r (3 mg/1 mg lysate) [3]: 1.82
rAVERAGE (2. inc/1. inc) [3]: 0.96
rAVERAGE (control/1. inc) [3]: 0.19
Ki [4]: 2930 µM
r (3 mg/1 mg lysate) [4]: 1.75
r (5 h/2.5 h inc. time) [4]: 1.12
rAVERAGE (2. inc/1. inc) [4]: 0.97
rAVERAGE (control/1. inc) [4]: 0.06
Ki [5]: 87.2 µM
r (3 mg/1 mg lysate) [5]: 2.39
r (5 h/2.5 h inc. time) [5]: 1.13
rAVERAGE (2. inc/1. inc) [5]: 0.47
rAVERAGE (control/1. inc) [5]: 0.07

CC(C)n1c(=O)ccc2cnc(Nc3ccc(OCCN)cc3)nc21 [compound 16742]
Percent bound at 1.87 μM 16742 conc ([6]; EXPERIMENT 1): 4.07%
Percent bound at 8.74 μM 16742 conc ([6]; EXPERIMENT 1): 25.17%
Percent bound at 52 μM 16742 conc ([6]; EXPERIMENT 1): 62.69%
Kd ([6]; EXPERIMENT 1, read-out: Kd): 29.3 µM
Percent bound at 1.87 μM 16742 conc ([6]; EXPERIMENT 2): 3.61%
Percent bound at 8.74 μM 16742 conc ([6]; EXPERIMENT 2): 15.31%
Percent bound at 52 μM 16742 conc ([6]; EXPERIMENT 2): 54.74%
Kd ([6]; EXPERIMENT 2, read-out: Kd): 44.3 µM
Kd ([6]; read-out: Kd Avg): 36.8 µM

COc1cc2ncnc(Nc3ccc(F)c(Cl)c3)c2cc1OCCCN1CCOCC1 [gefitinib]
IC50 [7]: 0.223 µM
rAVERAGE (10 nM/0 nM Gef.) [7]: 0.82
rAVERAGE (100 nM/0 nM Gef.) [7]: 0.53
rAVERAGE (1000 nM/0 nM Gef.) [7]: 0.43
rAVERAGE (10000 nM/0 nM Gef.) [7]: 0.11
Ki ([7]; read-out: Ki (Gef)): 0.0779 µM
rAVERAGE (10 nM/0 nM Gef.) [8]: 1.04
rAVERAGE (100 nM/0 nM Gef.) [8]: 1.10
rAVERAGE (1000 nM/0 nM Gef.) [8]: 1.01
rAVERAGE (10000 nM/0 nM Gef.) [8]: 0.77
rAVERAGE (10 nM/0 nM Gef.) [9]: 0.76
rAVERAGE (100 nM/0 nM Gef.) [9]: 1.00
rAVERAGE (1000 nM/0 nM Gef.) [9]: 0.73
rAVERAGE (10000 nM/0 nM Gef.) [9]: 0.37
